Measurements from paper PMC12723162, “Alphaherpesvirus pUL21 homologs use non-canonical sequences to compete with cellular adaptors for protein phosphatase 1 binding” (The Journal of Biological Chemistry, 2025).

Assays:
[1] = molecular target: T1, PP1γ catalytic domain : GADD34 peptide pre-formed complex (Mus musculus, UniProt P63087); experiment: Competition fluorescence anisotropy, displacement of FITC-GADD34 peptide from PP1γ (HEPES pH 8.0); type: binding; conditions: 2 nM fluorescent GADD34 peptide + 250 nM PP1γ; competitor at over 1000-fold molar excess; HEPES pH 8.0, 500 mM NaCl, 0.05% TWEEN-20; 27 °C
T1 construct: mouse PP1γ catalytic domain (residues 7–300)-H6; His6 (C); made in house; host or cells: E. coli T7 Express lysY/Iq (PP1γ); tracer peptide synthesised by GenScript
From the text: (§1) Bacterial expression plasmids encoding the mouse PP1γ catalytic domain (residues 7–300)-H6 and pUL21-H6, and mammalian expression vectors encoding pUL21(FV242AA)-GFP, pORF38-GFP and pORF38(FV255AA)-GFP, were described previously ([23]). We note that the mouse and human PP1γ catalytic domains share 100% amino acid identity. pORF38-NLT-H6 was generated by sub-cloning residues 1 to 263 of ORF38 into the vector pOPTnH ([52]). pUL21-RVxF-H6 was generated by inserting the mutations A237V and V239F into pUL21-H6 by QuikChange site-directed mutagenesis. Human PP1α was cloned from HeLa cell cDNA into a vector derived from pF5K (Promega) with an N-terminal Myc epitope tag via restriction-based cloning, and point mutations were introduced into Myc-PP1α by QuikChange mutagenesis. A plasmid encoding pUL21-GFP was generated by sub-cloning a codon-optimized synthetic UL21 gene (GeneArt) into pEGFP-N1 (Clontech), yielding an identical pUL21-GFP amino acid sequence as used in ([23]). pUL21-ΔL, -ΔR and -ΔLR were generated from this vector via inverse PCR, and point mutations were introduced via QuikChange mutagenesis.
Peptides were commercially synthesised to >95% purity (GenScript) as follows: GADD34 RVxF+ϕϕ[xF] […]
Proteins were expressed using E. coli T7 Express lysY/I^q cells (New England Biolabs) grown in 2 × TY medium at 37 °C to OD600 0.8 to 1.2 before cooling to 22 °C and induction of protein expression using 0.4 mM IPTG. […] Fractions were analysed by SDS-PAGE and those containing the desired protein were pooled, concentrated using centrifugal concentrators (Millipore) and stored at 4 °C (short-term) or snap-frozen in liquid nitrogen for long-term storage at −70 °C.
Fluorescence anisotropy was measured using a SpectraMax i3 microplate reader (Molecular Devices) with wavelengths 485 ± 20 nm (excitation) and 535 ± 25 nm (emission). Samples (100 μl per well) were dispensed into low-bind black half-area 96-well microtitre plates (Corning) and fluorescence anisotropy was recorded at 27 °C. […]

[2] = molecular target: T2, PP1γ catalytic domain (7–300), C-terminally His6-tagged (Mus musculus, UniProt P63087); experiment: Isothermal titration calorimetry (ITC); type: binding; parameters: key to KD / ∆H / ∆G / -T∆S / N (sites): –: no binding detected; conditions: for -T∆S / N (sites) / ∆G / ∆H / KD: TROPPO peptides; for KD: HEPES pH 8.0, 25 °C
T2 construct: mouse PP1γ catalytic domain (residues 7–300)-H6; made in house; host or cells: E. coli T7 Express lysY/Iq
From the text: as §1
Proteins were expressed using E. coli T7 Express lysY/I^q cells (New England Biolabs) grown in 2 × TY medium at 37 °C to OD600 0.8 to 1.2 before cooling to 22 °C and induction of protein expression using 0.4 mM IPTG. Cells were harvested at 16 to 20 h post-induction and pellets stored at −70 °C until required. Cells were resuspended in chilled lysis buffer (20 mM Tris pH 7.5, 20 mM imidazole, 500 mM NaCl, 1.4 mM β-mercaptoethanol 0.5 mM MgCl2 and 0.05% TWEEN-20 [plus 1 mM MnCl2 for PP1]) that was supplemented with 200 μl EDTA-free protease inhibitor cocktail (Merck) and 400 U bovine DNase I (Merck). Cells were lysed using a TS series cell disruptor (Constant Systems) at 24 kpsi and lysates were clarified (40,000×g, 30 min, 4 °C) before incubation with Ni-NTA agarose (Qiagen) for 1 h at 4 °C. The resin was washed with ≥20 column volumes of wash buffer (20 mM Tris, 20 mM imidazole and 500 mM NaCl [plus 1 mM MnCl2 for PP1]) at pH 7.5 (PP1γ and pORF38-NLT) or pH 8.5 (pUL21 and pUL21-RVxF). Protein was eluted using wash buffer supplemented with additional imidazole (final concentration 250 mM) and proteins were subjected to size-exclusions chromatography using HiLoad 16/600 Superdex 75 (PP1) or Superdex 200 (other) columns equilibrated in 20 mM Tris pH 8.5, 500 mM NaCl, 1 mM DTT (for pUL21 and pUL21-RVxF) or 50 mM HEPES pH 8.0, 500 mM NaCl, 0.5 mM TCEP (for PP1 and pORF38-NLT). Fractions were analysed by SDS-PAGE and those containing the desired protein were pooled, concentrated using centrifugal concentrators (Millipore) and stored at 4 °C (short-term) or snap-frozen in liquid nitrogen for long-term storage at −70 °C.
ITC experiments were performed using a MicroCal PEAQ-ITC automated calorimeter (Malvern Panalytical). The solvent (ITC buffer) was 50 mM HEPES pH 8.0, 500 mM NaCl, 0.5 mM TCEP. Lyophilized peptides were dissolved into ITC buffer and their concentration was estimated from dry mass. Proteins were diluted in ITC buffer, and their concentration was estimated from the theoretical extinction coefficient at 280 nm ([53]). […] Data were analyzed using MicroCal PEAQ-ITC analysis software (Malvern Panalytical) and fitted using a one-site binding model.
Table S1. Isothermal titration calorimetry (ITC) of PP1 with TROPPO-containing peptides and proteins. Data for independent experiments are shown. For all, the cell contained C-terminally His6-tagged mouse PP1γ (7–300). –, no binding detected.

pUL21-GFP = experiment: Co-IP of Myc-PP1 with pUL21-GFP; type: binding, HSV-1; conditions: for Co-IP of Myc-PP1 by pUL21-GFP: HEK 293T cells co-transfected, 24 h, immunoblot, versus WT Myc-PP1; for Abundance of Myc-PP1 in cell lysates: HEK 293T lysates used for IP; for Abundance of Myc-PP1 in cell lysates / Bound:input ratio of Myc-PP1 (effect of mutation): versus WT; for Bound:input ratio of Myc-PP1 (effect of mutation): densitometry, HEK 293T, ∗∗∗p < 0.001
From the text: as §1
(§2) Mycoplasma-free human embryonic kidney 293T (HEK 293T) cells (American Type Culture Collection #CRL-3216) were maintained in Dulbecco’s modified Eagle’s medium (DMEM) with high glucose (Merck), supplemented with 10% (v/v) heat-inactivated fetal calf serum and 2 mM L-glutamine (complete DMEM) in a humidified 5% CO2 atmosphere at 37 °C. The identity of the cell line was not independently confirmed.
(§3) Monolayers of HEK 293T cells were transfected with 7.7 μg of DNA per 9 cm dish, using 18 μg/ml 25 kDa branched polyethylenimine (Merck) or using TransIt-LT1 (Mirus) in accordance with the manufacturer’s instructions. Cells were harvested 24 h post-transfection and incubated for 30 min in ice-cold 10 mM Tris pH 7.5, 150 mM NaCl, 0.5 mM EDTA, 0.5% Igepal CA-630 (a.k.a. NP-40), 1% (v/v) EDTA-free protease inhibitor cocktail (Merck) before clarification at 21,000×g for 10 min at 4 °C. Lysate protein concentrations were measured using the bicinchoninic acid (BCA) assay (Pierce) and normalized before affinity capture using GFP-Trap resin (ChromoTek) following the manufacturer’s protocol. Samples were eluted by heating the resin to 95 °C for 5 min in 45 μl 2 × SDS-PAGE loading buffer. Proteins were separated by SDS-PAGE and transferred to 0.45 μm nitrocellulose membranes (PerkinElmer or Cytiva). Membranes were stained with Ponceau S and imaged using a G:Box XX9 (Syngene) before blocking in Tris-buffered saline with 0.1% TWEEN-20 (TBS-T) supplemented with 5% (w/v) non-fat milk powder. Immunoblotting was performed using antibodies diluted in blocking buffer as listed below, and immunoblots were imaged using an Odyssey CLx (LI-COR Biosciences). Densitometry was performed using Image Studio Lite version 5.2 (LI-COR Biosciences), and statistical tests were performed using Prism version 7 (GraphPad).
(§4) The following primary antibodies and dilutions were used for immunoblotting: rabbit anti-CERT 1:10,000 (Abcam #Ab72536), mouse anti-PP1α 1:1000 (Santa Cruz #sc-271762), mouse anti-Myc 1:4000 (Millipore #05–724), rat anti-tubulin (clone YL1/2) hybridoma supernatant 1:40 ([54]). The anti-CERT antibody was validated using a knock-out cell line. The anti-PP1α antibody has been validated by siRNA knockdown ([55]). The anti-Myc antibody was validated using control experiments lacking Myc-tagged transfected constructs ([56]). The anti-tubulin antibody has been validated by immunofluorescence microscopy, immuno-electron microscopy and radiolabeled immunosorbent assay ([54]). Secondary antibodies from LI-COR Biosciences were diluted 1:10,000 as follows: IRDye 680RD goat anti-rat (#926–68029) and goat anti-mouse (#926–68020), or IRDye 800CW goat anti-rabbit (#926–32221).

PP1 regulatory protein = conditions: cited from earlier work
From the text: HEK 293T cells were co-transfected with pUL21-GFP and WT or mutant Myc-PP1, and lysates were subjected to GFP affinity capture before SDS-PAGE and immunoblott ...

endogenous PP1α = experiment: GFP affinity capture / co-IP of endogenous PP1α with GFP-tagged bait; type: binding, human; conditions: HEK 293T cells, 24 h post-transfection, GFP-Trap, immunoblot; representative of two independent experiments
From the text: as §1, §2, §3, §4

[3] = independent experiment 1, syringe/cell µM: pUL21 1000/58.8, pORF38 1000/79.6
[4] = independent experiment 2, syringe/cell µM: pUL21 1000/54.5, pORF38 500/17.0

T2 sequence (P63087 7-300): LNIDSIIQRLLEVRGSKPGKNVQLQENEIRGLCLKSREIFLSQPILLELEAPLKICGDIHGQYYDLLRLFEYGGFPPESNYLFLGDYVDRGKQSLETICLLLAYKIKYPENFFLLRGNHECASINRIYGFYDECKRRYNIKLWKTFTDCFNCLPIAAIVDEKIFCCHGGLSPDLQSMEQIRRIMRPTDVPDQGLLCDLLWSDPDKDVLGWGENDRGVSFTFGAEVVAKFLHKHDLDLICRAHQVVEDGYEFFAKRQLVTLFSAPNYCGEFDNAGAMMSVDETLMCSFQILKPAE
T1 sequence (P63087 7-300, one chain of several): as the sequence (P63087 7-300) above

AKRATVSEFVQVKHIDR [pUL21 TROPPO, pUL21 TROPPO peptide (residues 234–250)]
Displacement of GADD34 peptide from PP1 by TROPPO peptides [1]: Neither TROPPO-containing peptide was able to displace the GADD34 peptide
ITC heats of TROPPO peptides against PP1 catalytic domain ([2]; 500–1000 μM peptide titrated, 50 mM HEPES pH 8.0, 500 mM NaCl, 0.5 mM TCEP, 25 °C): did not evolve heats above background levels
-T∆S [2, 3]: –
N (sites) [2, 3]: –
∆G [2, 3]: –
∆H [2, 3]: –
KD [2, 3]: –
-T∆S [2, 4]: –
N (sites) [2, 4]: –
∆G [2, 4]: –
∆H [2, 4]: –
KD [2, 4]: –

C291R
Co-IP of Myc-PP1 by pUL21-GFP (pUL21-GFP): profoundly less efficient than for WT Myc-PP1
Abundance of Myc-PP1 in cell lysates (pUL21-GFP): lower abundance of these mutants in the cell lysates
Bound:input ratio of Myc-PP1 (effect of mutation) (pUL21-GFP): significantly disrupt binding to pUL21-GFP
PP1 regulatory protein binding (PP1 regulatory protein): severely decrease PP1 regulatory protein binding

F257A
Co-IP of Myc-PP1 by pUL21-GFP (pUL21-GFP): profoundly less efficient than for WT Myc-PP1
Abundance of Myc-PP1 in cell lysates (pUL21-GFP): lower abundance of these mutants in the cell lysates
Bound:input ratio of Myc-PP1 (effect of mutation) (pUL21-GFP): significantly disrupt binding to pUL21-GFP
PP1 regulatory protein binding (PP1 regulatory protein): severely decrease PP1 regulatory protein binding

L289R
Co-IP of Myc-PP1 by pUL21-GFP (pUL21-GFP): profoundly less efficient than for WT Myc-PP1
Abundance of Myc-PP1 in cell lysates (pUL21-GFP): lower abundance of these mutants in the cell lysates
Bound:input ratio of Myc-PP1 (effect of mutation) (pUL21-GFP): significantly disrupt binding to pUL21-GFP
PP1 regulatory protein binding (PP1 regulatory protein): severely decrease PP1 regulatory protein binding

B1: V239F (protein)
chain: MELSYATTMHYRDVVFYVTTDRNRAYFVCGGCVYSVGRPCASQPGEIAKFGLVVRGTGPDDRVVANYVRSELRQRGLQDVRPIGEDEVFLDSVCLLNPNVSSELDVINTNDVEVLDECLAEYCTSLRTSPGVLISGLRVRAQDRIIELFEHPTIVNVSSHFVYTPSPYVFALAQAHLPRLPSSLEALVSGLFDGIPAPRQPLDAHNPRTDVVITGRRAPRPIAGSGAGSGGAGAKRATFSEFVQVKHIDRVGPAGVSPAPPPNNTDSSSLVPGAQDSAPPGPTLRELWWVFYAADRALEEPRADSGLTREEVRAVRGFREQAWKLFGSAGAPRAFIGAALGLSPLQKLAVYYYIIHRERRLSPFPALVRLVGRYTQRHGLYVPRPDDPVLADAINGLFRDALAAGTTAEQLLMFDLLPPKDVPVGSDVQADSTALLRFIESQRLAVPGGVISPEHVAYLGAFLSVLYAGRGRMSAATHTARLTGVTSLVLAVGDVDRLSAFDRGAAGAASRTRAAGYLDVLLTVRLARSQHGQSV
modifications: left off: GFP (from the vector pEGFP-N1), end not stated, kept
Co-IP of endogenous PP1α (endogenous PP1α): co-precipitated more PP1α than did WT pUL21-GFP
